Patent US20060088475A1, “Self-immolative magnetic resonance imaging contrast agents sensitive to beta-glucuronidase” (Northwestern University, priority 2004, published 2006)

How the values were obtained:
[1] = Determination of q via Eu(III) phosphorescence lifetimes in H2O and D2O; format: physicochemical
Protocol: Determination of q: Europium(III) compound 4 was dissolved in H2O and D2O. The emission was monitored at 614 nm with excitation at 394 nm on a Hitachi F4500 fluorometer operating in Phosphorescence Lifetime (short) mode. The shortest lifetime measurable with this instrument is about 0.3 ms. Fifteen scans were averaged and fit to a monoexponential decay to give phosphorescent lifetimes. T(D2O)=1.274 ms; T (H2O)=0.527 ms. Using the equation of Supkowski and Horrocks (See, e.g., Supkowski and Horrocks, Inorg. Chim. Acta 2002, 340, 44-48), q=0.89 while the equation from Beeby et al. ^40generates q=1.04.

[2] = T1 relaxivity at 60 MHz, 37° C. (inversion recovery, Gd(III) concentration by ICP-MS); format: physicochemical; details: for relaxivity r1 / increase in relaxivity on going from anion mimic to human serum: 37° C.; for decrease of relaxivity on addition of carbonate to the buffers: 24 mM carbonate added to MOPS or phosphate/BSA buffer; for decline of relaxivity in anion extracellular mimic: anion extracellular mimic (100 mM NaCl, 0.9 mM Na2HPO4, 30 mM NaHCO3, 0.13 mM sodium citrate, 2.3 mM sodium lactate) versus carbonate-containing buffers; for increase in relaxivity on going from anion mimic to human serum: male human blood serum versus extracellular anion mimic
Protocol: A 4 mM stock solution of either 1 or 2 in the appropriate buffer was diluted to give 500 μL each of seven approximate concentrations for each run: 0, 0.05, 0.15, 0.3, 0.5, 1.0, and 2.0 mM. The T1 of each concentration was determined using an inversion recovery pulse sequence with appropriate recycle delays on a Bruker mq60 Minispec. This instrument has a proton Larmor frequency of 60 MHz and operates at 37° C. The resulting curves were fit to a monoexponential function to obtain T10.10 μL of each sample was digested in concentrated nitric acid, diluted with water and analyzed for exact Gd(III) concentration using ICP-MS. The reciprocal of the longitudinal relaxation time was plotted against the concentration obtained from ICP-MS and fit to a straight line. All lines fit with R^2>0.998. This was performed for each buffer in duplicate. The buffers were all made to have the appropriate pH at 37° C. and remade if the pH had drifted more than 0.05 pH units upon storage. Anion mimic and carbonate containing buffers were made fresh daily.

[3] = molecular target: T1, bovine liver β-glucuronidase (Bos taurus, UniProt A3KMY8); assay: LC-MS analysis of the enzyme reaction mixture; format: biochemical; details: phosphate buffer with 0.01% BSA, pH=7.4, 37° C., after 24 h
T1 construct: β-glucuronidase isolated from bovine liver was chosen for the current studies; purchased Sigma G 0251; host or cells: bovine liver (tissue isolate)
T1 sequence (A3KMY8 1-652): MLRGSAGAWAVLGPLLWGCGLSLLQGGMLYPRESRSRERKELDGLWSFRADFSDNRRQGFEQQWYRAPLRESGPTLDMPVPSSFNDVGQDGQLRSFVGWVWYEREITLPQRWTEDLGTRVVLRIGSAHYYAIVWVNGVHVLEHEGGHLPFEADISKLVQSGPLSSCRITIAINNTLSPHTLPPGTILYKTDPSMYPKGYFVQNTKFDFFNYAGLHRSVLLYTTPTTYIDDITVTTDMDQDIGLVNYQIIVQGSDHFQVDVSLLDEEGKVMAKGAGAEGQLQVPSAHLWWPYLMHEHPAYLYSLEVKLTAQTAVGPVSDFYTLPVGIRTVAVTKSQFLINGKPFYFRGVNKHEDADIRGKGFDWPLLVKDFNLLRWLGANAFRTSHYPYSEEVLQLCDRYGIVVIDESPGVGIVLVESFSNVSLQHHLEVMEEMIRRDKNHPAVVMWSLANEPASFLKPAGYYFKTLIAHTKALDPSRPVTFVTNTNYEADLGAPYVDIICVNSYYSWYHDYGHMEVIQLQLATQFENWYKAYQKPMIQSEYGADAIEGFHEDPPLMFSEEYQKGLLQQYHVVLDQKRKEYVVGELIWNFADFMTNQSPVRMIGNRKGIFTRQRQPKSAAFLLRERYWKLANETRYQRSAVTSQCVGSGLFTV
Protocol: LC-MS. […] The alcohol and 1 are readily distinguished by their absorption spectra (PDA), their appropriate negative mode ESI-MS patterns and through spiking with authentic compound. 2 was more difficult to detect but could be observed using fluorescence. The HPLC method was as follows: 0-10% B over 10 min, hold at 10% B for 15 min, with fluorescence using λex=271 nm, λem=314 nm.

[4] = molecular target: T1, bovine liver β-glucuronidase; assay: Enzyme catalyzed hydrolysis kinetics monitored by bulk water T1 relaxation (magnetic resonance); format: biochemical
Protocol: (§1) General: Bovine liver β-glucuronidase (Type B-1, Sigma G 0251) stability in several buffers was assayed by incubating the enzyme in the desired buffer and sampling its activity at various time intervals using the Sigma quality control assay for β-glucuronidase from bovine liver. It was determined that MOPS and anion mimic (See, e.g., Parker, D. In Crown Compounds: Towards Future Applications; Cooper, S. R., Ed.; VCH: New York, 1992, pp 51-67) engendered the enzyme with poor stability, while 100 mM phosphate with 0.01% (w/v) bovine serum albumin (BSA), pH=7.4 at 37° C. gave suitable stability (>2 h at 37° C. without loss of activity) provided the enzyme concentration was greater than 0.5 mg/ml. The enzyme was stable for at least 24 h at 37° C. at its native pH of 5.0 in 100 mM acetate buffer. All kinetics measurements were made with 0.2 mM substrate, 1, in 510 μL buffer with either 1.0 mg/ml enzyme (those buffers at pH=7.4) or 0.1 mg/ml enzyme (pH=5.0 acetate buffer). For all buffers except serum (due to its opacity), the kinetics were determined simultaneously by both UV-visible and magnetic resonance. The runs were all continuous assays that are known to give the best data (See, e.g., Marangoni, A. G. Enzyme kinetics: a modern approach; Wiley-Interscience: Hoboken, N.J., 2003; Copeland, R. A. Enzymes: a practical introduction to structure, mechanism, and data analysis; VCH Publishers: New York, N.Y., 1996). Each run was performed in triplicate and two controls, one without enzyme and one without substrate, were also measured. […] This trend is in the opposite direction of the kinetics runs that show an increase in T1.
(§2) Magnetic Resonance: T1 was determined at intervals of 2 minutes for the first 30 min and 4 minutes for the next 30 min using a saturation recovery (90-T-90) pulse sequence using the Bruker mq60 operating as detailed in the relaxivity section. This sequence is less accurate than the inversion recovery method, but gives faster results. The runs were performed in triplicate. The substrate-only control was also examined in this manner.

[5] = test system: bovine liver β-glucuronidase; assay: as above; format: biochemical; details: acetate buffer, over the course of an hour, no enzyme
Protocol: as §1, §2

[6] = molecular target: T1, bovine liver β-glucuronidase; assay: Enzyme catalyzed hydrolysis kinetics monitored by UV-visible; format: biochemical; details: for initial rate: 0.2 mM 1, 1.0 mg/ml enzyme, pH 7.4, 37° C.
Protocol: as §1
UV-visible: The enzymatic hydrolysis of the pyranose from 1 and subsequent linker decomposition generates 4-hydroxy-3-nitrobenzyl alcohol. This compound has a maximum absorbance of 422 nm at pH=7.4. The molar absorptivity, E, was determined in triplicate from 0-0.2 mM, on an HP 8452A diode array spectrometer thermostated to 37° C. For 100 mM phosphate, 0.01% (w/v) BSA, pH=7.4 at 37° C. it is 2840±40 M^−1 cm^−1. For 100 mM phosphate, 24 mM NaHCO3, 0.01% (w/v) BSA, pH=7.4 at 37° C. it is 3010±50 M^−1 cm^−1. […] At pH=5.0 in acetate buffer, the maximum is at 354 nm. This overlaps with substrate, 1, absorption. The kinetics were sampled on the HP 8452A at 37° C. every 20 seconds for an hour. The initial rates for pH=7.4 buffers were determined through a linear fit of the first 10% change in absorbance. For the acetate buffer, only a half-life of conversion is reported. […] 4-hydroxy-3-nitrobenzyl alcohol was also present in the acetate runs as determined by LC-MS using 100 mM acetate pH=5 as solvent A.

[7] = phenol of the linker; cited from earlier work
[8] = 10 mM MOPS, 100 mM NaCl, pH=7.4, 60 MHz
[9] = 10 mM pyridine, 100 mM sodium chloride buffer, pH=5.0, 60 MHz
[10] = 100 mM acetate buffer, pH=5.0, 60 MHz
[11] = 100 mM sodium phosphate, 0.01% (w/v) BSA, pH=7.4, 60 MHz

## Europium(III) 1-(4-(2-(1-(4,7,10-tris-carboxymethyl-(1,4,7,10-tetrazaacyclododecyl)))-ethylcarbamoyloxymethyl)-2-nitrophenyl)-β-D-glucopyronuronate [Compound 4]
[1]; D2O, excitation 394 nm, emission 614 nm
  phosphorescent lifetime T(D2O): 1.274 ms
[1]; Eu(III) fluorescence, absence of buffer salts
  q (inner-sphere water molecules): 1
[1]; H2O, excitation 394 nm, emission 614 nm
  phosphorescent lifetime T (H2O): 0.527 ms
[1]; equation from Beeby et al.
  q (inner-sphere water molecules): 1.04
[1]; equation of Supkowski and Horrocks
  q (inner-sphere water molecules): 0.89

## O=C([O-])CN1CCN(CCNC(=O)OCc2ccc(O[C@@H]3O[C@H](C(=O)O)[C@@H](O)[C@H](O)[C@H]3O)c([N+](=O)[O-])c2)CCN(CC(=O)[O-])CCN(CC(=O)[O-])CC1.[Gd+3] [Compound 1, Gadolinium(III) 1-(4-(2-(1-(4,7,10-tris-carboxymethyl-(1,4,7,10-tetrazaacyclododecyl)))-ethylcarbamoyloxymethyl)-2-nitrophenyl)-β-D-glucopyronuronate]
[2]; [8]
  relaxivity r1: higher value
[2]; [9]
  relaxivity r1: 3.89 ± 0.05 mM⁻¹ s⁻¹
[2]; pH=7.4
  decrease of relaxivity on addition of carbonate to the buffers: 20-30%
[2]; [10]
  relaxivity r1: 2.53 ± 0.01 mM⁻¹ s⁻¹
[2]; [11]
  relaxivity r1: 4.73 mM⁻¹ s⁻¹
[2]; acetate buffer, pH=5.0
  decrease in relaxivity between the pure compounds (1 to 2): 15%
[2]; anion extracellular mimic
  increase in relaxivity from 1 to 2 (dark to bright change): 17%
[2]
  decline of relaxivity in anion extracellular mimic: 22%
  increase in relaxivity on going from anion mimic to human serum: 240%
[2]; human serum
  relaxivity differential, 1 brighter than 2: 27%
[2]; phosphate/BSA buffer (same trend as MOPS), pH=7.4
  drop in relaxivity upon going from 1 to 2: 20%
[3]
  presence of substrate in reaction mixture by LC/MS: disappeared
[4]; 0.2 mM 1, 0.1 mg/ml β-glucuronidase, acetate buffer pH=5.0, around 35 min
  increase in T1 during enzyme incubation (levels off): 15%
[4]; 0.2 mM 1, 1.0 mg/ml β-glucuronidase, human serum, over one hour, curve not saturated
  increase in T1 during enzyme incubation: 14%
[5]
  decrease in T1 of substrate control without enzyme: 2%
[6]; phosphate/BSA (100 mM sodium phosphate, 0.01% BSA)
  initial rate: 158 ± 34 nmol product/h/mg enzyme
[6]; phosphate/BSA/carbonate (24 mM NaHCO3)
  initial rate: 148 ± 26 nmol product/h/mg enzyme
[6]; pH=5 acetate buffer, enzyme concentration 10% of that at pH=7.4
  time to complete conversion: ≤ 45 min
[6]; pH=7.4 versus literature pH=5.5 data
  initial rate at pH=7.4 relative to standard substrate 4-methylumbelliferyl-β-D-glucuronide at pH=5.5: roughly 8%

## CC(O)CN1CCN(CC(=O)[O-])CCN(CC(=O)[O-])CCN(CC(=O)[O-])CC1.[Gd+3] (stereo not drawn) [GdHP-DO3A, reference compound]
[2]; [8]
  relaxivity r1: 2.99 ± 0.44 mM⁻¹ s⁻¹

## NCCN1CCN(CC(=O)[O-])CCN(CC(=O)[O-])CCN(CC(=O)[O-])CC1.[Gd+3] [Compound 2, Gadolinium(III)1-(2-aminoethyl)-4,7,10-(tris-carboxymethyl)-(1,4,7,10-tetrazaacyclododecane)]
[2]; [8]
  relaxivity r1: comparable to GdHP-DO3A
[2]; [9]
  relaxivity r1: 4.16 ± 0.09 mM⁻¹ s⁻¹
[2]; pH=7.4
  decrease of relaxivity on addition of carbonate to the buffers: remained the same within error
[2]; [10]
  relaxivity r1: 2.16 ± 0.04 mM⁻¹ s⁻¹
[2]; [11]
  relaxivity r1: 3.68 mM⁻¹ s⁻¹
[2]
  decline of relaxivity in anion extracellular mimic: 6%
  increase in relaxivity on going from anion mimic to human serum: 150%

## O=[N+]([O-])c1cc(CO)ccc1O [4-hydroxy-3-nitrobenzyl alcohol]
[7]
  pKa: about 7.5
